In experiment [1] the target is T1, Androgen receptor (Homo sapiens, UniProt P10275, T878A). Description: Inhibition of mutant T877A Androgen receptor in human LNCaP cells; Ag means agonist. Type of experiment: functional, cell-based.
In experiment [2] the target is T2, Androgen receptor (Homo sapiens, UniProt P10275).
T2 sequence (P10275 whole entry): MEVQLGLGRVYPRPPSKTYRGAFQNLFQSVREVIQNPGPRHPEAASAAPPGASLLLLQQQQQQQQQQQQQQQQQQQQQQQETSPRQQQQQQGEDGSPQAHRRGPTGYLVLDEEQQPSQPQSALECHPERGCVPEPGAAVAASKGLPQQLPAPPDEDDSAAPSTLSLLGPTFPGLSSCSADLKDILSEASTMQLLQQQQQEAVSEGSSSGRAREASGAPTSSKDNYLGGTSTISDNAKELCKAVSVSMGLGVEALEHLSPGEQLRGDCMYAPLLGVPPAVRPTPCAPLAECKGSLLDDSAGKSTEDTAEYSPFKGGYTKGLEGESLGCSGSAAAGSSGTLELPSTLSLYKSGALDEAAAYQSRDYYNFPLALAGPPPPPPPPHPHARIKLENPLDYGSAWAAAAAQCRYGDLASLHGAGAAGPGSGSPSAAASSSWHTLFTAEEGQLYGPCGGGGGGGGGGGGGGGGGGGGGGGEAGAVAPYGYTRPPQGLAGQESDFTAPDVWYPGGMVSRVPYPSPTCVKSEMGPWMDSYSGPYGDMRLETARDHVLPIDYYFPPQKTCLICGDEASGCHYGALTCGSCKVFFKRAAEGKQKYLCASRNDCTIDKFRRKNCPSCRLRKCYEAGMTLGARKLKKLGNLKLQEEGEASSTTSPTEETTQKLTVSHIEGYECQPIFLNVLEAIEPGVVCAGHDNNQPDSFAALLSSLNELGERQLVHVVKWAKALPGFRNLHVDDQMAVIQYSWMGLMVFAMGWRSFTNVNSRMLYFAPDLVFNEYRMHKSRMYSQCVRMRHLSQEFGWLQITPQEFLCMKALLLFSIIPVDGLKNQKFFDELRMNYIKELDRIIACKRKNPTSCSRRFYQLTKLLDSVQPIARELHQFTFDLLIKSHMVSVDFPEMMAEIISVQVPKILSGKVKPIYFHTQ
Nature of the experiment: Inhibition of androgen dependent human prostate cancer cell […] proliferation; Ag means agonist. Type of experiment: functional, cell-based. To be noted: cancer cell lines.

Experiment [3] concerns the target T2, Androgen receptor.
Description: Inhibition of androgen receptor in human MDA-453 cells
Experiment [4] has as its target T1, Androgen receptor. Description: biochemical.
Experiment [5] addresses T1, Androgen receptor. Description: Inhibition of mutant T877A Androgen receptor in human LNCaP cells. Type of experiment: cell-based.
Experiment [6] has as its target T2, Androgen receptor. Description: Binding affinity for androgen receptor in human MDA-453 cells.

T1 sequence (P10275 whole entry T878A): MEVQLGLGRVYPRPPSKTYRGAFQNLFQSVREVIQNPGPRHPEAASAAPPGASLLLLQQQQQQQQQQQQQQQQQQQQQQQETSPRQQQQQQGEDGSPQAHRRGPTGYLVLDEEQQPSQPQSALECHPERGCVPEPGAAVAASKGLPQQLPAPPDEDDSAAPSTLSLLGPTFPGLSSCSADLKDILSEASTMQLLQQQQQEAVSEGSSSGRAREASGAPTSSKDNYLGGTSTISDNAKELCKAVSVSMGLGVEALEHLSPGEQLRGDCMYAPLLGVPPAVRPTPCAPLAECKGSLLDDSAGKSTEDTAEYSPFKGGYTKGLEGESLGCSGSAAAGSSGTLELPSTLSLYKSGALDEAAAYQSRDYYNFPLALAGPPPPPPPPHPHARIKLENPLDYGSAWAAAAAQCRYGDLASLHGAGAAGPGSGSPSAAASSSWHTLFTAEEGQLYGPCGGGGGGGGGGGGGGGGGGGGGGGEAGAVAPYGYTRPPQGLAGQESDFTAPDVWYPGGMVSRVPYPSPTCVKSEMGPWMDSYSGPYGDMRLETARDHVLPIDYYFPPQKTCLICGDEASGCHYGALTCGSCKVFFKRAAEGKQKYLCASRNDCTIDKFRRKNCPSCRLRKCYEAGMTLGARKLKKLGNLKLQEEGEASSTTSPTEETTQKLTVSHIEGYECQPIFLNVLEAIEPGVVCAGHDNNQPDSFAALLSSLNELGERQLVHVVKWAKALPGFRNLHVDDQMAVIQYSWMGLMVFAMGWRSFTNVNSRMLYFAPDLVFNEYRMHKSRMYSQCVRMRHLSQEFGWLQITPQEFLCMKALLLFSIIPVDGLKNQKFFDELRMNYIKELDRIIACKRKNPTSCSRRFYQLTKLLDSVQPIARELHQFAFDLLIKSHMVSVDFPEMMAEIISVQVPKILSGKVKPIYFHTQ

The IC50 is the concentration that gives 50% inhibition. Higher therefore signals weaker potency in that assay. As for `O=C1[C@@H]2C3CCC(C3)[C@@H]2C(=O)N1c1ccc([N+](=O)[O-])c(C(F)(F)F)c1`, the IC50 result in experiment [1] and in experiment [2] was “Agonist” in each case.
For orientation: Ki means a measure of affinity in units of concentration, obtained from inhibition or displacement. Read a high Ki as weaker binding. `Cc1cc(N2C(=O)[C@@H]3C4C=CC(CC4)[C@@H]3C2=O)ccc1Br`: the figures for the IC50 result in experiment [1], in experiment [2] and in experiment [3] were “Agonist”, “Agonist” and 68 nM, respectively. In experiment [4], the Ki worked out at 0.01 nM.
On to `O=C1[C@@H]2C3C=CC(CC3)[C@@H]2C(=O)N1c1cccc(C(F)(F)F)c1`, for which the IC50 in experiment [5] stood at 66 nM; in experiment [3], 196 nM. The Ki in experiment [4] is 19 nM.
For `O=C1[C@@H]2C3C=CC(C3)[C@@H]2C(=O)N1c1ccc(Cl)c(Cl)c1`, the Ki was determined as 158 nM in experiment [6] and 6 nM in experiment [4]. Besides, the IC50 in experiment [5] was determined as 41 nM; in experiment [3], 307 nM.
Take `O=C1[C@@H]2C3C=CC([C@H]4C[C@@H]34)[C@@H]2C(=O)N1c1cccc(C(F)(F)F)c1`: the IC50 in experiment [5] turned out to be 30 nM; in experiment [3], 1700 nM. Further, in experiment [4], the Ki is 9 nM.
Turning to `CN1C(=O)C2C=CC1[C@@H]1C(=O)N(c3ccc([N+](=O)[O-])c4ccccc34)C(=O)[C@H]21` (stereo not given in full), the results for the Ki in experiment [6] and in experiment [4] were more than 5000 nM and 115 nM, respectively. Besides, the figures for the IC50 in experiment [5] and in experiment [3] were 631 nM and 4030 nM, respectively.
For the compound `O=C1[C@@H]2C3CCCC(CC3)[C@@H]2C(=O)N1c1cccc(C(F)(F)F)c1`, the IC50 in experiment [5] amounted to 23 nM; in experiment [3], 658 nM. The compound further registered a Ki in experiment [4] of 20 nM.
Take `O=C1[C@@H]2C3C=CC(CC3)[C@@H]2C(=O)N1c1ccc(Cl)c(Cl)c1`: the IC50 entry was “Agonist” in experiment [1], “Agonist” in experiment [2] and 150 nM in experiment [3]. Besides, the Ki is 83 nM in experiment [6] and 28 nM in experiment [4].
Regarding `O=C1[C@@H]2C3C=CC(CC3)[C@@H]2C(=O)N1c1ccc([N+](=O)[O-])c2ccccc12`, the IC50 result in experiment [2] was “Agonist”; in experiment [3] it was 224 nM. Also, the Ki in experiment [4] was determined as 0.5 nM.
For the compound `O=C1[C@@H]2C3C=CC([C@H]4C[C@@H]34)[C@@H]2C(=O)N1c1ccc([N+](=O)[O-])c2ccccc12`, the IC50 entry in experiment [1] is “Agonist”; in experiment [2], “Agonist”; in experiment [3] it was 786 nM. In addition, the affinity in experiment [6] corresponds to a Ki of 3 nM.
`O=C1[C@@H]2C3C=CC(CCC3)[C@@H]2C(=O)N1c1ccc([N+](=O)[O-])c2ccccc12`: the IC50 entry in experiment [1] was “Agonist”; in experiment [2] it was “Agonist”; in experiment [3], 49 nM.
Take `Cc1cc(N2C(=O)[C@@H]3C4C=CC([C@H](O)[C@@H]4O)[C@@H]3C2=O)ccc1Br`: the IC50 entry in experiment [2] is “Agonist”; in experiment [5], 59 nM; in experiment [3], 5240 nM. Further, the Ki in experiment [6] came to 432 nM; in experiment [4], 33 nM.
For the compound `CC(C)(O)C(=O)Nc1ccc([N+](=O)[O-])c(C(F)(F)F)c1` [HYDROXYFLUTAMIDE], the IC50 result in experiment [1] and in experiment [2] was “Agonist” in each case.
